Laboratory results reported in patent US9062071B2, “Substituted piperidines as HDM2 inhibitors” (Merck Sharp & Dohme Corp, priority 2011, dated 2015).

Molecular target: HDM2 protein (Homo sapiens, UniProt Q00987)
Assay: fluorescence polarization screening assay (FP IC50)
Format: binding
Conditions: class symbols
Method: The compounds were evaluated to determine activity at the HDM2 protein by known methods such as the fluorescence polarization screening assay that measures the inhibitory concentration that achieves 50% of maximal activity (FP IC50) and the dissociation constant for inhibitor binding (FP Ki). [Zhang et al., J. Analytical Biochemistry 331: 138-146 (2004)].

Sequence of HDM2 protein (Q00987 whole entry): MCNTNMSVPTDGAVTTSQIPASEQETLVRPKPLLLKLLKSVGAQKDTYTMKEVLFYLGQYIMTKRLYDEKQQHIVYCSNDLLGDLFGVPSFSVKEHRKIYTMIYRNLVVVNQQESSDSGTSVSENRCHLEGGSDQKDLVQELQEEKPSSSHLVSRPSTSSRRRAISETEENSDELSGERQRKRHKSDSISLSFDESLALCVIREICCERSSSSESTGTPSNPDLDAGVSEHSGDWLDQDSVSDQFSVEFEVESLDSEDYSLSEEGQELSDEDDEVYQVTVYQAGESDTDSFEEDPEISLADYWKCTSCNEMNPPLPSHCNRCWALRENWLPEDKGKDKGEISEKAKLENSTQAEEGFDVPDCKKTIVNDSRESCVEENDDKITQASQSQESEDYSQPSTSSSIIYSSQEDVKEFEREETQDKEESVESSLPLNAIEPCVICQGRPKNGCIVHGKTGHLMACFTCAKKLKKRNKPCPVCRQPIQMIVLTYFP

Row | Compound | IC50
1 | CCC[C@H]1N(C(=O)c2ncccc2C(F)(F)F)CCC[C@@]1(Oc1csc(C(F)(F)F)c1)C(=O)N1CCc2cc(Cl)ccc2C1(CCO)C(N)=O (stereo partly drawn) [Compound A109, 6-chloro-1-(2-hydroxyethyl)-2-{[(2R,3S)-2-propyl-1-{[3-(trifluoromethyl)pyridin-2-yl]carbonyl}-3-{[5-(trifluoromethyl)thiophen-3-yl]oxy}piperidin-3-yl]carbonyl}-1,2,3,4-tetrahydroisoquinoline-1-carboxamide] | 1 to 100 nM
2 | CCCC1N(C(=O)c2ncccc2C(F)(F)F)CCCC1(Oc1ccc(OC(F)(F)F)cc1)C(=O)N1CCc2cc(F)ccc2C1 (stereo not drawn) [Compound A110, 6-fluoro-2-[(2-propyl-3-[4-(trifluoromethoxy)phenoxy]-1-{[3-(trifluoromethyl)pyridin-2-yl]carbonyl}piperidin-3-yl)carbonyl]-1,2,3,4-tetrahydroisoquinoline] | 101 to 20000 nM
3 | CCC[C@H]1N(C(=O)c2ncccc2C(F)(F)F)CCC[C@@]1(Oc1ccc(OC(F)(F)F)cc1)C(=O)N1CCc2cc(Cl)ccc2[C@@H]1CCC(=O)O [Compound A111] | 1 to 100 nM
4 | O=C(c1ncccc1C(F)(F)F)N1CCC[C@@](Oc2csc(C(F)(F)F)c2)(C(=O)N2CCc3cc(Cl)ccc3C2)[C@H]1CCNC1CCOCC1 [Compound A112, N-{2-[(2R,3S)-3-[(6-chloro-3,4-dihydroisoquinolin-2(1H)-yl)carbonyl]-1-{[3-(trifluoromethyl)pyridin-2-yl]carbonyl}-3-{[5-(trifluoromethyl)thiophen-3-yl]oxy}piperidin-2-yl]ethyl}tetrahydro-2H-pyran-4-amine] | 1 to 100 nM
5 | C=CC[C@H]1N(C(=O)c2ncccc2C(F)(F)F)CCC[C@@]1(Oc1csc(C(F)(F)F)c1)C(=O)N1CCc2cc(Cl)ccc2C1C(=O)O (stereo partly drawn) [Compound A113, 6-chloro-2-{[(2R,3S)-2-prop-2-en-1-yl-1-{[3-(trifluoromethyl)pyridin-2-yl]carbonyl}-3-{[5-(trifluoromethyl)thiophen-3-yl]oxy}piperidin-3-yl]carbonyl}-1,2,3,4-tetrahydroisoquinoline-1-carboxylic acid] | 1 to 100 nM
6 | CCN1CCN(CC[C@H]2N(C(=O)c3ncccc3C(F)(F)F)CCC[C@@]2(Oc2csc(C(F)(F)F)c2)C(=O)N2CCc3cc(Cl)ccc3C2)CC1 [Compound A114, 6-chloro-2-{[(2R,3S)-2-[2-(4-ethylpiperazin-1-yl)ethyl]-1-{[3-(trifluoromethyl)pyridin-2-yl]carbonyl}-3-{[5-(trifluoromethyl)thiophen-3-yl]oxy}piperidin-3-yl]carbonyl}-1,2,3,4-tetrahydroisoquinoline] | 1 to 100 nM
7 | CN1CCN(CC[C@H]2N(C(=O)c3ncccc3C(F)(F)F)CCC[C@@]2(Oc2csc(C(F)(F)F)c2)C(=O)N2CCc3cc(Cl)ccc3C2)CC1 [Compound A115, 6-chloro-2-{[(2R,3S)-2-[2-(4-methylpiperazin-1-yl)ethyl]-1-{[3-(trifluoromethyl)pyridin-2-yl]carbonyl}-3-{[5-(trifluoromethyl)thiophen-3-yl]oxy}piperidin-3-yl]carbonyl}-1,2,3,4-tetrahydroisoquinoline] | 1 to 100 nM
8 | O=C(c1ncccc1C(F)(F)F)N1CCC[C@@](Oc2csc(C(F)(F)F)c2)(C(=O)N2CCc3cc(Cl)ccc3C2)[C@H]1CCN1CCN(CC2CC2)CC1 [Compound A116, 6-chloro-2-{[(2R,3S)-2-{2-[4-(cyclopropylmethyl)piperazin-1-yl]ethyl}-1-{[3-(trifluoromethyl)pyridin-2-yl]carbonyl}-3-{[5-(trifluoromethyl)thiophen-3-yl]oxy}piperidin-3-yl]carbonyl}-1,2,3,4-tetrahydroisoquinoline] | 1 to 100 nM
9 | COCCN(C)CC[C@H]1N(C(=O)c2ncccc2C(F)(F)F)CCC[C@@]1(Oc1csc(C(F)(F)F)c1)C(=O)N1CCc2cc(Cl)ccc2C1 [Compound A117, 2-[(2R,3S)-3-[(6-chloro-3,4-dihydroisoquinolin-2(1H)-yl)carbonyl]-1-{[3-(trifluoromethyl)pyridin-2-yl]carbonyl}-3-{[5-(trifluoromethyl)thiophen-3-yl]oxy}piperidin-2-yl]-N-(2-methoxyethyl)-N-methylethanamine] | 1 to 100 nM
10 | COCCN1CCN(CC[C@H]2N(C(=O)c3ncccc3C(F)(F)F)CCC[C@@]2(Oc2csc(C(F)(F)F)c2)C(=O)N2CCc3cc(Cl)ccc3C2)CC1 [Compound A118, 6-chloro-2-{[(2R,3S)-2-{2-[4-(2-methoxyethyl)piperazin-1-yl]ethyl}-1-{[3-(trifluoromethyl)pyridin-2-yl]carbonyl}-3-{[5-(trifluoromethyl)thiophen-3-yl]oxy}piperidin-3-yl]carbonyl}-1,2,3,4-tetrahydroisoquinoline] | 1 to 100 nM

Continued, values first:

Row | IC50 | Compound
11 | 1 to 100 nM | CC(C)(C(=O)O)C1CCN(CC[C@H]2N(C(=O)c3ncccc3C(F)(F)F)CCC[C@@]2(Oc2csc(C(F)(F)F)c2)C(=O)N2CCc3cc(Cl)ccc3C2)CC1 [Compound A119, 2-(1-{2-[(2R,3S)-3-[(6-chloro-3,4-dihydroisoquinolin-2(1H)-yl)carbonyl]-1-{[3-(trifluoromethyl)pyridin-2-yl]carbonyl}-3-{[5-(trifluoromethyl)thiophen-3-yl]oxy}piperidin-2-yl]ethyl}piperidin-4-yl)-2-methylpropanoic acid]
12 | 101 to 20000 nM | CCC[C@H]1N(C(=O)c2cnccc2C(F)(F)F)CCC[C@@]1(Oc1csc(C(F)(F)F)c1)C(=O)N1Cc2ccccc2C[C@H]1CO [Compound A120, [(3S)-2-{[(2R,3S)-2-propyl-1-{[4-(trifluoromethyl)pyridin-3-yl]carbonyl}-3-{[5-(trifluoromethyl)thiophen-3-yl]oxy}piperidin-3-yl]carbonyl}-1,2,3,4-tetrahydroisoquinolin-3-yl]methanol]
13 | 101 to 20000 nM | CCC[C@H]1N(C(=O)c2cnccc2C(F)(F)F)CCC[C@@]1(Oc1csc(C(F)(F)F)c1)C(=O)N1CCc2cccc(O)c2C1 [Compound A121, 2-{[(2R,3S)-2-propyl-1-{[4-(trifluoromethyl)pyridin-3-yl]carbonyl}-3-{[5-(trifluoromethyl)thiophen-3-yl]oxy}piperidin-3-yl]carbonyl}-1,2,3,4-tetrahydroisoquinolin-8-ol]
14 | 1 to 100 nM | CCC[C@H]1N(C(=O)c2cnccc2C(F)(F)F)CCC[C@@]1(Oc1csc(C(F)(F)F)c1)C(=O)N1CCc2ccccc2C1CC(=O)O (stereo partly drawn) [Compound A122, (2-{[(2R,3S)-2-propyl-1-{[4-(trifluoromethyl)pyridin-3-yl]carbonyl}-3-{[5-(trifluoromethyl)thiophen-3-yl]oxy}piperidin-3-yl]carbonyl}-1,2,3,4-tetrahydroisoquinolin-1-yl)acetic acid]
15 | 1 to 100 nM | CCC[C@H]1N(C(=O)c2ncccc2C(F)(F)F)CCC[C@@]1(Oc1csc(C(F)(F)F)c1)C(=O)N1Cc2ccc(F)cc2C[C@@H]1C(=O)O [Compound A123, (3R)-6-fluoro-2-{[(2R,3S)-2-propyl-1-{[3-(trifluoromethyl)pyridin-2-yl]carbonyl}-3-{[5-(trifluoromethyl)thiophen-3-yl]oxy}piperidin-3-yl]carbonyl}-1,2,3,4-tetrahydroisoquinoline-3-carboxylic acid]
